Where two headings read alike, the source gives them in different places.
Tested on: T1, PinZ
T1 construct: full-length, N-terminal hexahistidine tag kept (pET-28a(+), pJM492), E. coli BL21 Star (DE3)
Experiment: steady-state kinetics, reversed-phase HPLC
Assay type: biochemical, Novosphingobium rhizosphaerae
Settings: NADPH co-substrate, 20 mM Tris-HCl pH 7.0, 30 °C, 10 min, read-out: apparent Km

Q: Which Km (~88% e.e. (+)-pinoresinol preparation) does the source give for `COc1cc([C@H]2OC[C@H]3[C@@H]2CO[C@@H]3c2ccc(O)c(OC)c2)ccc1O` [(+)-pinoresinol] here?
A: 22.1 ± 3.2 µM

Q: `COc1cc(C2OCC3C(c4ccc(O)c(OC)c4)OCC23)ccc1O` (racemic) [(±)-pinoresinol] was tested. Which Km (racemate) did it give?
A: 27 ± 6.6 µM
